Data reported in ChEMBL document CHEMBL4610009, “Modification of the lead molecule: Tryptophan and piperidine appended triazines reversing inflammation and hyeperalgesia in rats” (Bioorg Med Chem, 2020).
≈ marks a conversion by molar mass, not a printed value. Values belong to the compound of their own block, whether it stands above or below them. Calls of active or inactive are those of the source. The rule behind the calls is not given here.

Tests used:
[1] = target: T1, Prostaglandin G/H synthase 1 (Ovis aries, UniProt P05979); assay: Inhibition of ovine COX1 using arachidonic acid as substrate incubated for 10 mins followed by substrate addition and measured after 2 mins by EIA assay
T1 sequence (P05979 whole entry): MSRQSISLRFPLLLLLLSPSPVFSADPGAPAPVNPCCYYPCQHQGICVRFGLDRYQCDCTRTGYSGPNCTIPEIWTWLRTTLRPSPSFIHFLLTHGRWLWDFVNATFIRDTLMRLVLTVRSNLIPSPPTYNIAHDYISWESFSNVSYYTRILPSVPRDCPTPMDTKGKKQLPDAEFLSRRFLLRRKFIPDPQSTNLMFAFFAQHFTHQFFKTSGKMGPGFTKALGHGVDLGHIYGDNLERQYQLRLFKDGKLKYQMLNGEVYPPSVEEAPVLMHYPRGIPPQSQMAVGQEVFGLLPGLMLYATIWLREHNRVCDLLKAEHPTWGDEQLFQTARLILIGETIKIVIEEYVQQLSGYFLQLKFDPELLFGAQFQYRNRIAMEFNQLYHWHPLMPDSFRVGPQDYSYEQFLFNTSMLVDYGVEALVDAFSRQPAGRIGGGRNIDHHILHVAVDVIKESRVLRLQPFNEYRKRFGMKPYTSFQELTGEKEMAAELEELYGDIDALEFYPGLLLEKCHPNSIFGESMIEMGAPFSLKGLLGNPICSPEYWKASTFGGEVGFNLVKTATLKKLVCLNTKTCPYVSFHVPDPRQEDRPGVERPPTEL

[2] = Protein binding in plasma (unknown origin); type: ADME, cell-free; conditions: read-out: PPB (converted)
[3] = Ratio of drug level in brain to blood (unknown origin); type: ADME, tissue-based; conditions: read-out: BBR
[4] = Solubility of compound in pure water; type: physicochemical
[5] = Drug absorption in human intestine; type: ADME, tissue-based; conditions: read-out: Drug absorption
Rattus norvegicus [6] = assay: Analgesic activity in Wistar rat assessed as reduction in acetic acid-induced writhing at 10 mg/kg, ip incubated for 30 mins followed by acetic acid addition and observed for 30 mins; type: functional, organism-based
[7] = target: Prostaglandin G/H synthase 1 (Homo sapiens) (UniProt P23219); assay: Inhibition of calcium ionophore-activated COX1 in human whole blood assessed as TXB2 level at 1 uM by ELISA; type: tissue-based
Rattus norvegicus [8] = assay: Analgesic activity in Wistar rat assessed as reduction in acetic acid-induced writhing at 10 mg/kg, ip incubated for 30 mins followed by acetic acid addition and observed for 30 mins relative to control; type: functional; conditions: 0.5 h
Rattus norvegicus [9] = assay: Analgesic activity in Wistar rat assessed as reduction in formalin-induced flitching in neurogenic phase at 10 mg/kg, ip incubated for 30 mins followed by formalin addition and observed for 60 mins; type: functional, organism-based
[10] = target: T2, Prostaglandin G/H synthase 2 (Rattus norvegicus) (UniProt P35355); assay: In vivo inhibition of COX2 in Wistar rat assessed as reduction in formalin-induced COX2 expression at 10 mg/kg, ip incubated for 30 mins followed by formalin addition and measured after 2 hrs by immunofluorescence based assay; type: functional, organism-based
T2 sequence (whole entry): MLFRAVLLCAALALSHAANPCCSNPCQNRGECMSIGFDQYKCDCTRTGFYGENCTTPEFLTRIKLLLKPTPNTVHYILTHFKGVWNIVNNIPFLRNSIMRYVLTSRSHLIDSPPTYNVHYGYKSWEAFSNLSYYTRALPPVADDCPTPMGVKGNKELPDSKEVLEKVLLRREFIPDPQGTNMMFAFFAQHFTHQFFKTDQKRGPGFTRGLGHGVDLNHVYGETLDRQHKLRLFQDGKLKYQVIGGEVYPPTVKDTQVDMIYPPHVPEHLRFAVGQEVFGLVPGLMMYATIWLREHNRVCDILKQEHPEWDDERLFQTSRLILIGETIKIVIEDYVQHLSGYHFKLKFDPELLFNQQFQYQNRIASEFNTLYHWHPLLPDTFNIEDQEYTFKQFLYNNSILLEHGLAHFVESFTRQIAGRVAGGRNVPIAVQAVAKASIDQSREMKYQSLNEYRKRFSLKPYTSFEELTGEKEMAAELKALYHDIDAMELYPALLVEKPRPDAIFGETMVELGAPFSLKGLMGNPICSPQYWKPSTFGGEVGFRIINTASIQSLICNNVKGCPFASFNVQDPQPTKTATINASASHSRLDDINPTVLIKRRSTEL

Rattus norvegicus [11] = assay: Analgesic activity in Wistar rat assessed as reduction in formalin-induced flitching in inflammatory phase at 10 mg/kg, ip incubated for 30 mins followed by formalin addition and observed for 60 mins; type: functional, organism-based
[12] = Acute toxicity in Wistar rat assessed as behavioral alterations at 2000 mg/kg, po observed for 14 days; type: organism-based; conditions: in vivo, 336 h
[13] = Acute toxicity in Wistar rat assessed as effect on liver at 2000 mg/kg, po measured after 14 days by hematoxylin-eosin staining based light microscopy; type: organism-based; conditions: in vivo, 336 h
[14] = Acute toxicity in Wistar rat assessed as effect on kidney at 2000 mg/kg, po measured after 14 days by hematoxylin-eosin staining based light microscopy; type: organism-based; conditions: in vivo, 336 h

Chain of Prostaglandin G/H synthase 1 (Homo sapiens) (P23219 whole entry): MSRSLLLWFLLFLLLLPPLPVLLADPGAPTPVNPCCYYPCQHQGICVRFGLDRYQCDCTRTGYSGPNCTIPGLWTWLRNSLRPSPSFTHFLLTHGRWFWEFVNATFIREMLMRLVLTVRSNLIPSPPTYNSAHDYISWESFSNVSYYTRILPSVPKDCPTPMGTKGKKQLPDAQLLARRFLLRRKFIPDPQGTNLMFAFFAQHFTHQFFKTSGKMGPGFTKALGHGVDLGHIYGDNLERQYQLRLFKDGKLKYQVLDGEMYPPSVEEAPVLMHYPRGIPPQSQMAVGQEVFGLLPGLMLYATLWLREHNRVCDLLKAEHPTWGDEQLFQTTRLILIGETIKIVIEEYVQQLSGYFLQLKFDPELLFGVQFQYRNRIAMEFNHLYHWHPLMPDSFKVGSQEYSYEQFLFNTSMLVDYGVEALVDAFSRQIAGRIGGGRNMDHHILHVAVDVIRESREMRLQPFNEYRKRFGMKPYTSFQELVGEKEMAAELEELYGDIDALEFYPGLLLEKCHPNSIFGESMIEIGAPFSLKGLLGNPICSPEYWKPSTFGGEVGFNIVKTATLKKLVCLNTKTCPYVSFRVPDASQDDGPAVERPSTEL

- IC50 [1]: > 10 µM
SMILES: COC(=O)[C@H](Cc1ccccc1)n1cc(COc2nc(Cl)nc(N3CCOCC3)n2)nn1

- IC50 [1]: > 10 µM
SMILES: COC(=O)[C@H](Cc1ccc(O)cc1)n1cc(COc2nc(Cl)nc(N3CCOCC3)n2)nn1

- IC50 [1]: > 10 µM
SMILES: COC(=O)[C@H](Cc1ccc(O)cc1)n1cc(COc2nc(Cl)nc(Nc3ccc(N4CCOCC4=O)cc3)n2)nn1

- IC50 [1]: > 10 µM
SMILES: COC(=O)[C@H](Cc1ccc(O)cc1)n1cc(COc2nc(Cl)nc(N3CCCC3)n2)nn1

- IC50 [1]: > 10 µM
SMILES: COC(=O)[C@H](Cc1c[nH]c2ccccc12)n1cc(COc2nc(Cl)nc(N3CCCCC3)n2)nn1

- IC50 [1]: 6 µM
SMILES: O=C1COCCN1c1ccc(Nc2nc(Cl)nc(OCc3cn(Cc4ccccc4)nn3)n2)cc1

- IC50 [1]: 8 µM
SMILES: COC(=O)[C@H](Cc1ccccc1)n1cc(COc2nc(Cl)nc(Nc3ccc(N4CCOCC4=O)cc3)n2)nn1

- IC50 [1]: > 10 µM
SMILES: O=C(O)c1ccccc1Nc1nc(Cl)nc(Nc2ccc(N3CCOCC3=O)cc2)n1

- IC50 [1]: > 10 µM
SMILES: COC(=O)[C@H](Cc1ccccc1)Nc1nc(Cl)nc(Nc2ccc(N3CCOCC3=O)cc2)n1
- Activity (Rattus norvegicus [6]): Active

- IC50 [1]: > 10 µM
- Activity [7]: 0.9 ng/mL
- inhibition [10]: Active
- fraction unbound [2]: 0.124
- Kp [3]: 0.09
- solubility [4]: 30 µg/mL (≈ 0.0575 mM)
- Fa [5]: 97.2%
SMILES: COC(=O)[C@@H](N)Cc1cn(-c2nc(Cl)nc(Nc3ccc(N4CCOCC4=O)cc3)n2)c2ccccc12
- inhibition in vivo at 10 mg/kg (Rattus norvegicus [8]): 73%
- Activity (Rattus norvegicus [9]): Active
- Activity (Rattus norvegicus [11]): Active

- IC50 [1]: > 10 µM
SMILES: COC(=O)[C@H](Cc1ccccc1)n1cc(COc2nc(Cl)nc(N3CCCC3)n2)nn1

- IC50 [1]: 5 µM
SMILES: COC(=O)[C@H](Cc1ccccc1)n1cc(COc2nc(Cl)nc(Nc3ccc(Cl)cc3)n2)nn1

- IC50 [1]: > 10 µM
SMILES: COC(=O)[C@H](Cc1c[nH]c2ccccc12)n1cc(COc2nc(Cl)nc(N3CCOCC3)n2)nn1

- IC50 [1]: > 10 µM
SMILES: CC[C@H](C)[C@H](Nc1nc(Cl)nc(Nc2ccc(N3CCOCC3=O)cc2)n1)C(=O)OC
- Activity (Rattus norvegicus [6]): Active

- IC50 [1]: 4 µM
SMILES: Clc1ccc(Nc2nc(Cl)nc(OCc3cn(Cc4ccccc4)nn3)n2)cc1

Further lines, the compound ahead of its results:

SMILES: O=C1COCCN1c1ccc(Nc2nc(Cl)nc(N3CCCC3)n2)cc1
- IC50 [1]: > 10 µM
- fraction unbound [2]: 0.143
- Kp [3]: 0.01
- solubility [4]: 4910 µg/mL (≈ 13.1 mM)
- Fa [5]: 96.8%

SMILES: N[C@@H](Cc1cn(-c2nc(Cl)nc(N3CCOCC3)n2)c2ccccc12)C(=O)O
- IC50 [1]: 1 µM
- fraction unbound [2]: 0.324
- Kp [3]: 0.19
- solubility [4]: 5810 µg/mL (≈ 14.4 mM)
- Fa [5]: 96.9%

SMILES: COC(=O)[C@@H](N)Cc1ccc(Oc2nc(Cl)nc(N3CCOCC3)n2)cc1
- Activity (Rattus norvegicus [6]): Active

SMILES: Clc1nc(OCc2cn(Cc3ccccc3)nn2)nc(N2CCCC2)n1
- IC50 [1]: 8 µM

SMILES: COc1ccc2c(c1)c(CC(=O)O)c(C)n2C(=O)c1ccc(Cl)cc1 [INDOMETHACIN]
- Activity [7]: 0.59 ng/mL
- inhibition in vivo at 10 mg/kg (Rattus norvegicus [8]): 70%
- Activity (Rattus norvegicus [9]): Active
- Activity (Rattus norvegicus [11]): Active

SMILES: Clc1nc(OCc2cn(Cc3ccccc3)nn2)nc(N2CCOCC2)n1
- IC50 [1]: > 10 µM

SMILES: COC(=O)[C@@H](N)Cc1ccc(Oc2nc(Cl)nc(N3CCCCC3)n2)cc1
- IC50 [1]: > 10 µM

SMILES: COC(=O)[C@@H]1CCCN1c1nc(Cl)nc(Nc2ccc(N3CCOCC3=O)cc2)n1
- Activity (Rattus norvegicus [6]): Active

SMILES: COC(=O)[C@H](Cc1cn(-c2nc(Cl)nc(Nc3ccc(N4CCOCC4=O)cc3)n2)c2ccccc12)NC(=O)OC(C)(C)C
- Activity (Rattus norvegicus [6]): Active

SMILES: COC(=O)[C@@H](N)Cc1cn(-c2nc(Cl)nc(N3CCCCC3)n2)c2ccccc12
- IC50 [1]: > 10 µM
- Activity [7]: 0.84 ng/mL
- inhibition in vivo at 10 mg/kg (Rattus norvegicus [8]): 65%
- Activity (Rattus norvegicus [9]): Active
- inhibition [10]: Active
- Activity [12]: Non-Toxic
- Activity [13]: Non-Toxic
- Activity [14]: Non-Toxic
- fraction unbound [2]: 0.149
- Kp [3]: 0.66
- solubility [4]: 740 µg/mL (≈ 1.78 mM)
- Fa [5]: 98.2%
- Activity (Rattus norvegicus [11]): Active
